Source: US7109242B2, “Carboxylic compound and medicine comprising the same” (Kowa Company, Ltd., priority 2003, dated 2006)
Structures can show the parent of a compound that is named as a salt.

Columns and labels:
C57BL/KsJ db/db mouse = assay: Actions of lowering plasma glucose, insulin and triglyceride in vivo in db/db mice; settings: for Reduction rate of plasma glucose / Reduction rate of plasma insulin / Reduction rate of plasma triglyceride: blood two hours after administration on 14th day; for Plasma glucose reducing action (ED25): oral once a day for 14 days, dose required for reduction of plasma glucose concentration by 25%, vehicle group as 100%
Source text: The compounds of the present invention and the aforementioned Compound A and pioglitazone hydrochloride each as a reference compound were subjected to the measurements of the actions of lowering plasma glucose, insulin, and triglyceride in vivo according to the following method (Metabolism, 48, pp34–40, 1999, Journal of Medicinal Chemistry, 44, pp2601–2611, 2001).
C57BL/KsJ db/db mouse (Journal of Clinical Investigation, 85, pp 962–967, 1990) was used as an experimental animal, which was developed in The Jackson Laboratory (USA) and is known as a model animal with obesity, hyperlipemia, hyperinsulinemia, and insulin resistance.
Bloods were collected from seven weeks old db/db mice from their orbital sinus by using heparin-treated capillary tubes. After centrifugation of the bloods, plasma was collected and then subjected to measurements of concentrations of plasma glucose, insulin, and triglyceride to divide the animals. From the next day of the day of blood collection, the administrations of the compounds were started. The compounds were orally administered once a day for 14 days. On the 14th day, blood was collected from orbital sinus two hours after the administration of the compounds. Plasma was collected, and subjected to measurements of concentrations of plasma glucose, insulin, and triglyceride.
The dose required for reduction of plasma glucose concentration by 25% (ED25) was obtained using the value of the vehicle administered group as 100% (Arznimittel-Forschung, 40, pp156–162, 1990).

PPAR γ = biological target: T1, PPAR γ (Homo sapiens, UniProt P37231); settings: mode of action of thiazolidinedione type compounds; cited from earlier work
T1 sequence (P37231 1-505): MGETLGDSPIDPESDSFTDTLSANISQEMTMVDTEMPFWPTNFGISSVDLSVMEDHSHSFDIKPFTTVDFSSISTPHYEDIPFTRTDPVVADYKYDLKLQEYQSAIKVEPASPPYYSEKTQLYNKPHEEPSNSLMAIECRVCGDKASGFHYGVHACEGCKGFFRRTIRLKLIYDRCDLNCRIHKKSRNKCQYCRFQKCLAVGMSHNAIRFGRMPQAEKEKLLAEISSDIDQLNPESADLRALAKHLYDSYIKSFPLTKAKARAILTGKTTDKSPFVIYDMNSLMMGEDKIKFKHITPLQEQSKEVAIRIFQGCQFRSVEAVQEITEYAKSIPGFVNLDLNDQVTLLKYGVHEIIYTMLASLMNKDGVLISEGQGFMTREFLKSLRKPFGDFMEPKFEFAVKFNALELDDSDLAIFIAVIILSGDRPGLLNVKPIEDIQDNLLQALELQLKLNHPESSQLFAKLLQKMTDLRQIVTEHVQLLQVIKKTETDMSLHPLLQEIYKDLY

[1] = 0.5 mg/kg orally once a day for 14 days, 0.5 mg/kg
[2] = 1.5 mg/kg orally once a day for 14 days, 1.5 mg/kg
[3] = 5 mg/kg orally once a day for 14 days, 5 mg/kg
[4] = 3 mg/kg orally once a day for 14 days
[5] = 10 mg/kg orally once a day for 14 days
[6] = 30 mg/kg orally once a day for 14 days
[7] = 1 mg/kg orally once a day for 14 days

With `O=C(O)C(Cl)(Cl)CCCCCCCC(O)CCc1ccc(Cl)cc1` (single isomer, unassigned; (+)) [Example 5(4), (+)-2,2-dichloro-12-(4-chlorophenyl)-10-hydroxydodecanoic acid] the “Reduction rate of plasma glucose” value (C57BL/KsJ db/db mouse; [1]) was 20.7 ± 14.3, the “Reduction rate of plasma insulin” value (C57BL/KsJ db/db mouse; [1]) was −22.0 ± 84.1 and the “Reduction rate of plasma triglyceride” value (C57BL/KsJ db/db mouse; [1]) was 42.0 ± 17.3. For the same compound, the “Reduction rate of plasma glucose” value (C57BL/KsJ db/db mouse; [2]) was 40.6 ± 5.8, the “Reduction rate of plasma insulin” value (C57BL/KsJ db/db mouse; [2]) was 39.5 ± 37.5 and the “Reduction rate of plasma triglyceride” value (C57BL/KsJ db/db mouse; [2]) was 48.3 ± 6.9. For the same compound, the “Reduction rate of plasma glucose” value (C57BL/KsJ db/db mouse; [3]) was 42.4 ± 11.4, the “Reduction rate of plasma insulin” value (C57BL/KsJ db/db mouse; [3]) was 43.8 ± 26.3 and the “Reduction rate of plasma triglyceride” value (C57BL/KsJ db/db mouse; [3]) was 44.6 ± 9.7. For the same compound, the “Plasma glucose reducing action (ED25)” value (C57BL/KsJ db/db mouse) was 0.5 mg/kg and the “Plasma glucose reducing action (ED25)” value (C57BL/KsJ db/db mouse; listed as Example 5 (4)) was 0.5 mg/kg.

With `CCc1ccc(CCOc2ccc(CC3SC(=O)NC3=O)cc2)nc1` (stereo not shown) [Pioglitazone hydrochloride, reference compound] the “Reduction rate of plasma glucose” value (C57BL/KsJ db/db mouse; [4]) was 13.4 ± 18.3, the “Reduction rate of plasma insulin” value (C57BL/KsJ db/db mouse; [4]) was −24.7 ± 119.3 and the “Reduction rate of plasma triglyceride” value (C57BL/KsJ db/db mouse; [4]) was 9.4 ± 15.9. For the same compound, the “Reduction rate of plasma glucose” value (C57BL/KsJ db/db mouse; [5]) was 22.3 ± 22.8, the “Reduction rate of plasma insulin” value (C57BL/KsJ db/db mouse; [5]) was −18.7 ± 52.5 and the “Reduction rate of plasma triglyceride” value (C57BL/KsJ db/db mouse; [5]) was 25.4 ± 16.9. For the same compound, the “Reduction rate of plasma glucose” value (C57BL/KsJ db/db mouse; [6]) was 45.2 ± 21.2, the “Reduction rate of plasma insulin” value (C57BL/KsJ db/db mouse; [6]) was 13.9 ± 22.7 and the “Reduction rate of plasma triglyceride” value (C57BL/KsJ db/db mouse; [6]) was 38.2 ± 8.1. For the same compound, the “Plasma glucose reducing action (ED25)” value (C57BL/KsJ db/db mouse) was 8.3 mg/kg.

In the case of `O=C(O)C(Cl)(Cl)CCCCCCCC(O)CCc1ccc(Cl)cc1` (stereo not shown) [Example 2(4), 2,2-dichloro-12-(4-chlorophenyl)-10-hydroxydodecanoic acid], the “Reduction rate of plasma glucose” value (C57BL/KsJ db/db mouse; [4]) is reported as 44.4 ± 17.0, the “Reduction rate of plasma insulin” value (C57BL/KsJ db/db mouse; [4]) is reported as −12.5 ± 58.1 and the “Reduction rate of plasma triglyceride” value (C57BL/KsJ db/db mouse; [4]) is reported as 53.2 ± 6.9. The “Reduction rate of plasma glucose” value (C57BL/KsJ db/db mouse; [5]) was 66.6 ± 4.1, the “Reduction rate of plasma insulin” value (C57BL/KsJ db/db mouse; [5]) was 39.1 ± 21.3 and the “Reduction rate of plasma triglyceride” value (C57BL/KsJ db/db mouse; [5]) was 54.1 ± 5.5. For the same compound, the “Reduction rate of plasma glucose” value (C57BL/KsJ db/db mouse; [6]) was 75.2 ± 3.1, the “Reduction rate of plasma insulin” value (C57BL/KsJ db/db mouse; [6]) was 64.3 ± 10.1 and the “Reduction rate of plasma triglyceride” value (C57BL/KsJ db/db mouse; [6]) was 55.7 ± 6.3. For the same compound, the “Plasma glucose reducing action (ED25)” value (C57BL/KsJ db/db mouse) was 0.6 mg/kg and the “Plasma glucose reducing action (ED25)” value (C57BL/KsJ db/db mouse; listed as Example 2 (4)) was 0.6 mg/kg.

For `O=C(O)C(Cl)(Cl)CCCCCCCC(O)CCc1ccc(Cl)cc1` (single isomer, unassigned; (-)) [Example 5(5), (−)-2,2-dichloro-12-(4-chlorophenyl)-10-hydroxydodecanoic acid], the “Reduction rate of plasma glucose” value (C57BL/KsJ db/db mouse; [1]) was −10.3, the “Reduction rate of plasma insulin” value (C57BL/KsJ db/db mouse; [1]) was 20.8 ± 32.0 and the “Reduction rate of plasma triglyceride” value (C57BL/KsJ db/db mouse; [1]) was 23.0 ± 13.8. For the same compound, the “Reduction rate of plasma glucose” value (C57BL/KsJ db/db mouse; [2]) was 28.5 ± 10.7, the “Reduction rate of plasma insulin” value (C57BL/KsJ db/db mouse; [2]) was 20.4 ± 38.0 and the “Reduction rate of plasma triglyceride” value (C57BL/KsJ db/db mouse; [2]) was 40.5 ± 15.3. For the same compound, the “Reduction rate of plasma glucose” value (C57BL/KsJ db/db mouse; [3]) was 49.2 ± 9.6, the “Reduction rate of plasma insulin” value (C57BL/KsJ db/db mouse; [3]) was 68.9 ± 13.2 and the “Reduction rate of plasma triglyceride” value (C57BL/KsJ db/db mouse; [3]) was 37.6 ± 11.3. For the same compound, the “Plasma glucose reducing action (ED25)” value (C57BL/KsJ db/db mouse) was 1.7 mg/kg.

With `O=C(O)C(Cl)(Cl)CCCCCCCCCCc1ccc(Cl)cc1` [Compound A] the “Reduction rate of plasma glucose” value (C57BL/KsJ db/db mouse; [7]) was −5.0 ± 19.5, the “Reduction rate of plasma insulin” value (C57BL/KsJ db/db mouse; [7]) was 0.7 ± 77.6 and the “Reduction rate of plasma triglyceride” value (C57BL/KsJ db/db mouse; [7]) was 23.4 ± 15.3. The “Reduction rate of plasma glucose” value (C57BL/KsJ db/db mouse; [4]) was 25.4 ± 17.7, the “Reduction rate of plasma insulin” value (C57BL/KsJ db/db mouse; [4]) was 7.4 ± 18.7 and the “Reduction rate of plasma triglyceride” value (C57BL/KsJ db/db mouse; [4]) was 27.5 ± 17.5. For the same compound, the “Reduction rate of plasma glucose” value (C57BL/KsJ db/db mouse; [5]) was 65.3 ± 5.0, the “Reduction rate of plasma insulin” value (C57BL/KsJ db/db mouse; [5]) was 10.7 ± 61.6 and the “Reduction rate of plasma triglyceride” value (C57BL/KsJ db/db mouse; [5]) was 54.6 ± 4.1. For the same compound, the “Plasma glucose reducing action (ED25)” value (C57BL/KsJ db/db mouse) was 2.8 mg/kg and the “PPAR γ activating action” value (PPAR γ) was “no PPAR γ activating action”.

For `O=C(O)C(Cl)(Cl)CCCCCCCCC(O)Cc1ccc(Cl)cc1` (stereo not shown) [Example 4(4), 2,2-dichloro-12-(4-chlorophenyl)-11-hydroxydodecanoic acid], the “Reduction rate of plasma glucose” value (C57BL/KsJ db/db mouse; [4]) was 35.0 ± 21.2, the “Reduction rate of plasma insulin” value (C57BL/KsJ db/db mouse; [4]) was −19.8 ± 71.8 and the “Reduction rate of plasma triglyceride” value (C57BL/KsJ db/db mouse; [4]) was 45.5 ± 13.9. For the same compound, the “Reduction rate of plasma glucose” value (C57BL/KsJ db/db mouse; [5]) was 65.2 ± 8.0, the “Reduction rate of plasma insulin” value (C57BL/KsJ db/db mouse; [5]) was 20.3 ± 24.9 and the “Reduction rate of plasma triglyceride” value (C57BL/KsJ db/db mouse; [5]) was 58.8 ± 3.7. For the same compound, the “Reduction rate of plasma glucose” value (C57BL/KsJ db/db mouse; [6]) was 67.2 ± 6.8, the “Reduction rate of plasma insulin” value (C57BL/KsJ db/db mouse; [6]) was 51.1 ± 20.2 and the “Reduction rate of plasma triglyceride” value (C57BL/KsJ db/db mouse; [6]) was 54.1 ± 6.6. The “Plasma glucose reducing action (ED25)” value (C57BL/KsJ db/db mouse) was 1.1 mg/kg.

With `O=C(O)C(Cl)(Cl)CCCCCCCCCC(O)c1ccc(Cl)cc1` (stereo not shown) [Example 3(4), 2,2-dichloro-12-(4-chlorophenyl)-12-hydroxydodecanoic acid] the “Reduction rate of plasma glucose” value (C57BL/KsJ db/db mouse; [4]) was 29.3 ± 28.7, the “Reduction rate of plasma insulin” value (C57BL/KsJ db/db mouse; [4]) was −2.8 ± 46.6 and the “Reduction rate of plasma triglyceride” value (C57BL/KsJ db/db mouse; [4]) was 23.2 ± 24.7. For the same compound, the “Reduction rate of plasma glucose” value (C57BL/KsJ db/db mouse; [5]) was 53.4 ± 14.7, the “Reduction rate of plasma insulin” value (C57BL/KsJ db/db mouse; [5]) was 39.0 ± 10.3 and the “Reduction rate of plasma triglyceride” value (C57BL/KsJ db/db mouse; [5]) was 40.6 ± 8.9. The “Reduction rate of plasma glucose” value (C57BL/KsJ db/db mouse; [6]) was 74.5 ± 3.0, the “Reduction rate of plasma insulin” value (C57BL/KsJ db/db mouse; [6]) was 61.7 ± 18.5 and the “Reduction rate of plasma triglyceride” value (C57BL/KsJ db/db mouse; [6]) was 25.8 ± 24.7. The “Plasma glucose reducing action (ED25)” value (C57BL/KsJ db/db mouse) was 2.4 mg/kg.
